Test results: US20050032124A1, “Identification of genotype-selective agents for treating Huntington's disease” (priority 2003, published 2005)

Columns and labels:
[1] = test system: PC12 cells expressing Htt-Q103; test: PC12 Htt-Q103 toxicity assay, Alamar Blue viability; assay type: cell-based, rat; design: rescue of Htt-Q103 toxicity: dose or concentration left out as unconfirmed
Description: In the first cell system, Applicants developed, in collaboration with Dr. Erik Schweitzer (UCLA), a high-throughput screen (HTS) for compounds that rescue polyQ-induced apoptosis in immortalized rat neuronal cells (Suhr S T, et al., Proc Natl Acad Sci U S A 1998, 95: 7999-8004). PC12 rat pheochromocytoma cells were transfected with exon-1 of the human huntingtin gene containing either 25 or 103 N-terminal polyQ repeats. For enhanced stability the repeat portion consists of alternating CAG/CAA repeats (FIG. 11A). In addition, the expression construct incorporates enhanced green fluorescent protein (EGFP) as a reporter that enables tracking of the fusion proteins by direct immunofluorescence microscopy or biochemical (immunoprecipitation or Western blotting) detection with anti-EGFP antibodies (Schweitzer E S, et al., submitted). Finally, expression is regulated using the Bombyx mori ecdysone receptor and ecdysone analog, tebufenozide (Suhr S T, et al., Proc Natl Acad Sci U S A 1998, 95: 7999-8004). […]
The high-throughput screen developed by Applicants using the PC12 cell system uses the fluorescent viability dye Alamar Blue™ (FIG. 11B). […] The Z-factor is a commonly used quantitative index for maximal signal separation and minimal variability. […]

[2] = test system: BJELR cells (BJ-TERT/LT/ST/RAS^V12); test: Screen of ACL library for suppressors of erastin activity (calcein AM); assay type: cell-based, human; settings: 4 μg/ml compound, 5 μg/ml erastin
Protocol: ACL library comprises 1,540 compounds and all compounds were prepared in DMSO at […] in 384-well polypropylene plates and stored at −20° C. Replica daughter plates for each library plate were prepared using Zymark Scilone ALH. The daughter plates were diluted 50 fold in DMEM and compound concentration in the daughter plate is 80 μg/ml with 2% DMSO. In assay plate compound from the daughter plate is diluted 20 fold with cell suspension, thus final concentration of each compound is 4 μg/ml.
BJELR cells were seeded at 6000 cells/well (57μl) (for co-treatment screen) and 5000 cells/well (57 μl) (for pretreatment screen) in 384-well black, clear bottom plates using syringe bulk dispenser. For co-treatment suppressor screen, cells were treated with 3 μl of compound from the daughter plates of ACL library (final concentration in assay plate at 4 μg/ml) and at the same time treated with 5 μg/ml of erastin. Compound transfer was done using 384 fixed cannula head. Plates were incubated for 48 hours at 37° C. in incubator with 5% CO2. For the pretreatment screens, cells were pre-incubated with the compound from ACL daughter library plate for overnight and then treated with 5 μg/ml of erastin for further 48 hours. […] Fluorescence intensity was determined using Fusion platereader with filters centered in an excitation of 485 nm and emission of 535 nm. […]

[3] = test system: BJELR cells (BJ-TERT/LT/ST/RAS^V12) versus BJEH cells (BJ-TERT); test: Erastin analogs: activity and selectivity in tumor cells versus normal cells; assay type: cell-based, human
Description: Applicants additionally tested 135 analogs of erastin for activity and selectivity in tumor cells versus normal cells. […] This compound was named erastin B (see FIG. 8). […] BJELR cells are BJ-TERT/LT/ST/RAS^V12 cells, and BJEH are BJ-TERT cells.

topoisomerase I (TOPI) = test: Western blot for TOPI expression; assay type: cell-based, human; settings: BJ primary cells
Description: (A-C) Western blot of lysates from BJ, BJ-TERT, BJ-TERT/LT/ST, BJ-TERT/LT/ST/RAS^V12, BJ-TERT/LT/RAS^V12 and BJ-TERT/LT/RAS^V12/ST cells with an antibody directed against topoisomerase II (A) or TOPI (B, C). In panel (C), cells were transfected with an siRNA directed against TOPI, lamic A/C or with a control double strand DNA duplex of the same length (TOPI dsDNA). In each case, the blot was probed with an antibody against eIF-4E to identify differences in the amount of protein loaded. The relative amount is quantitated below each band. […] Cell number was determined after transfection with an siRNA directed against TOPI and treatment with the indicated concentrations of camptothecin. (E) Okadaic acid, an inhibitor of PP2A and other cellular phosphatases, sensitizes primary human cells to camptothecin. BJ primary cells were treated simultaneously with the indicated concentrations of both camptothecin and okadaic acid and the effect on calcein AM viability staining was determined. […] BJ primary cells were treated with the indicated concentrations of okadaic acid and the expression level of TOPI was determined by western blot. The relative amount is quantitated below each band. […]

BJ primary cells = test: Sensitization of primary cells by co-treatment, calcein AM viability staining; assay type: cell-based, human; settings: for effect on calcein AM viability staining, alone: BJ primary cells
Description: (A-C) Western blot of lysates from BJ, BJ-TERT, BJ-TERT/LT/ST, BJ-TERT/LT/ST/RAS^V12, BJ-TERT/LT/RAS^V12 and BJ-TERT/LT/RAS^V12/ST cells with an antibody directed against topoisomerase II (A) or TOPI (B, C). In panel (C), cells were transfected with an siRNA directed against TOPI, lamic A/C or with a control double strand DNA duplex of the same length (TOPI dsDNA). In each case, the blot was probed with an antibody against eIF-4E to identify differences in the amount of protein loaded. The relative amount is quantitated below each band. […] Cell number was determined after transfection with an siRNA directed against TOPI and treatment with the indicated concentrations of camptothecin. (E) Okadaic acid, an inhibitor of PP2A and other cellular phosphatases, sensitizes primary human cells to camptothecin. BJ primary cells were treated simultaneously with the indicated concentrations of both camptothecin and okadaic acid and the effect on calcein AM viability staining was determined. […] BJ primary cells were treated with the indicated concentrations of okadaic acid and the expression level of TOPI was determined by western blot. The relative amount is quantitated below each band.
The compounds in group (iii) are camptothecin (CPT) and a novel compound from a combinatorial library, which Applicants have named erastin, for eradicator of RAS and ST-expressing cells (FIG. 2). Efficient CPT-induced and erastin-induced cell death requires the presence of both ST and RAS^V12 (FIGS. 3 and 4 and Table 1). Although CPT and erastin have a similar genetic basis of selectivity, they have distinct mechanisms of action. […] The phosphatase inhibitor okadaic acid was capable of sensitizing otherwise resistant BJ primary cells to CPT (FIG. 5E), possibly because okadaic acid upregulates TOPI (FIG. 5F).

With `COC(=O)CC(NC(=O)OC(C)(C)C)C(=O)CF` [BOC-D-FMK, Boc-Asp(Ome)-fluoromethyl ketone] the “rescue of the Htt-Q103-induced cytotoxicity” value ([1]; 50 μM, added at the time of tebufenozide induction) was at least 100% and the “rescue of Htt-Q103 toxicity” value ([1]; 72 hour induction with tebufenozide) was “rescues Htt-Q103 toxicity”.
In the case of `Cc1c(C)c2c(c(C)c1O)CC[C@@](C)(CCC[C@H](C)CCC[C@H](C)CCCC(C)C)O2` [α-tocopherol], the “suppression of erastin activity” value [2] is reported as “suppress erastin activity”.
erastin B was tested, and the “activity and selectivity in tumor cells versus normal cells” value [3] was “active and selective, but less potent than erastin”.
With `C=C1[C@@H](O)[C@@H]2O[C@]3(CC[C@H](/C=C/[C@@H](C)[C@@H]4CC(C)=C[C@@]5(O[C@H](C[C@@](C)(O)C(=O)O)CC[C@H]5O)O4)O3)CC[C@H]2O[C@@H]1[C@@H](O)C[C@H](C)[C@H]1O[C@@]2(CCCCO2)CC[C@H]1C` [okadaic acid] the “expression of TOPI (western blot)” value (topoisomerase I (TOPI)) was “stimulates expression of TOPI”, the “sensitization of cells to camptothecin” value (BJ primary cells; BJ (or BJ-TERT) cells, simultaneous treatment) was “renders BJ cells sensitive to camptothecin” and the “sensitization of cells to erastin” value (BJ primary cells; BJ or BJ-TERT cells) was “does not render BJ or BJ-TERT cells sensitive to erastin”. The “effect on calcein AM viability staining, alone” value (BJ primary cells; 3.4 nM) was “no effect on its own” and the “effect on calcein AM viability staining, alone” value (BJ primary cells; highest concentrations tested) was “kills BJ cells”.
